Entries after “also recorded” stand apart in the source; their conditions may differ.

The nature of series [1]: Skin penetration on porcine skin, fluorescence microscopy of cryosections. The format is in vitro ADME. On the procedure:
Frozen, porcine skin was allowed to equilibrate to room temperature, and then cut into ~2×2 cm squares and placed into 0.9 mL of PBS in a 6 well plate. 25 μL of HA-CBT (10 mg/mL in PBS), gly-CBT (1 mg/mL in PBS), and PBS were gently spread on porcine skin to a 1 cm circle with a metal spatula. After spreading the formulations, the 6 well plate was placed into a humidified incubator at 37° C. for 18 h.
A small region in the center of the application area was then excised using a surgical scalpel, and placed into OCT in a biopsy mold. The tissue was snap frozen by placing the biopsy mold directly into a methylpentane, dry ice slurry. The tissue was then sectioned on a cryostat microtome to 20 μm sections. A drop of ProLong Gold was placed on each section and covered with a coverslip prior to imaging. Images were taken on a ZeissAxioPlan2 using a 10× objective and a DAPI filter to visualize the location of CBT.

Series [2] in a line: Penetration of gly-CBT in 3D human skin model (EpiDerm), absorbance at 326 nm and microscopy. The class given is in vitro ADME. The procedure: The penetration and interactions of gly-CBT in human skin was assessed using a 3D human skin model (Mattek EpiDerm™). After allowing the skin tissues to equilibrate with media for 1 h at 37° C. in 6 well plates, the media was replaced with PBS and 100 μL of PBS and gly-CBT (1 mg/mL) were applied on top of 4 skin tissues each. Following 6 h incubation, a single tissue from each group was flash frozen in OCT for cryosectioning and microscopy. For the remaining samples, the liquid which remained on top of the tissue inserts (~100 μL) and the liquid in the acceptor solution (900 μL) was collected. The top of the tissue inserts were then washed 2× with PBS and then the inserts were submerged into 2 mL of a 1:1 PBS:MeOH solution to extract molecules which penetrated the skin. After performing the extraction for 2 h at 37° C., the concentration of gly-CBT was measured in the donor, acceptor, and extract solutions by reading the absorbance at 326 nm with a plate reader. The remaining tissue insert was cryosectioned and imaged using fluorescent microscopy as described in Example 1.

Series [3] in a line: Distribution of chemical species in EpiDerm tissue by HPLC with sequential extractions. The class given is in vitro ADME, human. The procedure: To further study the penetration of gly-CBT within human skin tissue, HPLC was used to quantify the distribution of different chemical species after application of gly-CBT and gly-aminoLuciferin (gly-Luc) into EpiDerm™ tissue. As described above, 100 μL of gly-CBT and gly-Luc was applied on the top of the skin tissue. Following 6 h incubation, the donor and acceptor solutions were collected and the chemical species which penetrated the skin were attempted to be extracted with 1:1 MeOH:PBS. Following the first extraction protocol, the tissue inserts were rinsed with PBS and imaged in a dark room by exposing with a UV254 lamp. Following the imaging, further extractions were carried out sequentially with 1.0% Triton X-100, acidified MeOH (0.1% TFA), and DCM. Neither of the later extractions were successful in extracting out any additional CBT species.

The test system of series [4] is 3D reconstructed epidermis model (Epiderm tissue, Epi-200). In words: Skin irritation test (OECD TG 439, EPI-200-SIT), MTT viability. As to conditions: for reduction in cell viability in the skin tissue: 1 h exposure, MTT, relative to PBS, SDS 5%, HA-CBT 20 and 2 mg/mL, gly-CBT 1 and 0.1 mg/mL. The class given is cell-based, human. On the procedure: To evaluate the biocompatibility of CBT functionalized molecules, a skin irritation study was conducted using a 3D reconstructed epidermis model supplied by Mattek. The skin irritation test was conducted following the OECD TG 439 protocol as a basis. Upon receiving the Epiderm™ tissue (Epi-200) from Mattek, the tissue inserts were removed from agarose and incubated in 0.9 mL of media in 6 well plates for 1 h at 37° C. The tissue inserts were then transferred to new wells containing 0.9 mL of fresh media, and incubated overnight for 18 h at 37° C. 30 μL of PBS, HA-CBT (20 mg/mL and 2 mg/mL in PBS), gly-CBT (1 mg/mL and 0.1 mg/mL), and SDS (5 wt %) was applied and spread on the top of 3 independent tissue inserts each. After incubation at 37° C. for 1 h, the formulations were pipetted out and the tissue inserts were washed three times with PBS. The tissue inserts were then incubated in fresh media for 24 h at 37° C. The media was then exchanged with fresh media, and the inserts were incubated for an additional 18 h at 37° C. Following incubation, the viability of the tissue was assessed using the MTT assay, discussed in detail in a protocol established by Mattek (EPI-200-SIT).

In the case of `N#Cc1nc2ccc(NC(=O)CN)cc2s1` [gly-CBT], in series [1], the “extraction of gly-CBT from porcine skin” value is “inability to extract”. The “fluorescence signal in the dermis” value in series [1] (18 h at 37 °C, DAPI filter) was “lower signal”. In addition, in series [1] (18 h at 37 °C, DAPI filter, HA-CBT 10 mg/mL, gly-CBT 1 mg/mL in PBS), the “fluorescence within the stratum corneum and epidermis” value is recorded as “High fluorescence”. Also, the “applied gly-CBT extracted from within the Epiderm tissue” value in series [2] (1:1 PBS:MeOH extraction 2 h at 37 °C) was ~ 10%. Moreover, the “total gly-CBT detected after extraction and in donor and acceptor solutions” value in series [2] (6 h incubation, 1:1 PBS:MeOH extraction) is on record as ~ 50%. Moreover, in series [2] (EpiDerm, 6 hours), the “fraction of the penetrated amount that appeared in the acceptor compartment” value is “about ⅓” and the “fraction of the penetrated amount that remained in the skin” value is “⅔”. In series [2] (EpiDerm, within 6 hours), the “applied dose that penetrated the skin” value was “about 75%”. The “fluorescent signal within the tissue by microscopy” value in series [2] (after 6 h application, cryosection) is recorded as “significant fluorescent signal”. Moreover, the “applied gly-CBT remaining on the surface of the epiderm tissue” value in series [2] (after 6 h incubation, 1 mg/mL, absorbance 326 nm) was ~ 25%. In addition, the “fluorescence of tissue insert under UV lamp” value in series [3] (after first extraction process and washing step) is on record as “extremely fluorescent”. Besides, in series [3] (sequential extractions after 1:1 MeOH:PBS), the “extractability from the tissue with Triton X-100, acidified methanol and dichloromethane” value is recorded as “unable to be extracted; also recorded: could not be removed”. In addition, the “reduction in cell viability in the skin tissue” value in series [4] was “neither gly-CBT nor HA-CBT showed any reduction”. Also, the irritation classification result in series [4] (EPI-200-SIT, relative viability greater than 50% = non-irritant) is recorded as “non-irritants”.
Regarding `CCCCCCCCCCCCOS(=O)(=O)[O-].[Na+]` [SDS, reference compound], the “reduction in cell viability in the skin tissue” value in series [4] is listed as roughly 100%.

(Values after patent US12721861B2, “Delivery and retention of active agents within the skin” (Fount Bio, Inc., priority 2019, dated 2026).)
